Measured values as given in article PMC11284788, “NN1213 – A Potent, Long-Acting, and Selective Analog of Human Amylin” (Journal of Medicinal Chemistry, 2024).
Read-outs that look alike come from different tables or passages of the source. Numbered stars: 1 amine (or outer) side, 2 acyl side, 3 side chain; on linkers, the order of the positions; unused ones are H or OH. Bridge positions count the residues as written; N and C are the ends. Peptide text beside a SMILES is read from it. * marks the point of attachment. C20 diacid = O=C(O)CCCCCCCCCCCCCCCCCCC(=O)*; γGlu = O=C(O)[C@H](CCC(=O)[*:2])N[*:1]; AEEA = NCCOCCOCC(=O)O

What was measured:
[1] = HMWP content by size-exclusion chromatography; format: physicochemical; conditions: analogs 10–21 (pH 4.0 series); covalent dimers and polymers prior to fibril formation testing, SEC, % of total absorbance area at 215 nm
How it was run: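 HMWP percentage is the covalent dimer/polymer peak area relative to total absorbance area, with extinction coefficients taken as equal to the main peak. Isocratic size-exclusion elution used 50% (v/v) 2-propanol containing 0.5 M NaCl and phosphate buffer; measured on analogs prior to fibril assays.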

rAMY3R = target: T1, rAMY3R (Rattus norvegicus, UniProt P32214+Q9JJ73); assay: scintillation proximity binding assay, rAMY3R membranes; parameters: expressed in transfected cells; host or cells: BHK tk-ts 13, transient co-transfection (FuGENE 6); conditions: for ratio rCTR/rAMY3R: ratio of binding IC50 values
T1 sequence (P32214 25-479 isoform P32214-2 limits assumed): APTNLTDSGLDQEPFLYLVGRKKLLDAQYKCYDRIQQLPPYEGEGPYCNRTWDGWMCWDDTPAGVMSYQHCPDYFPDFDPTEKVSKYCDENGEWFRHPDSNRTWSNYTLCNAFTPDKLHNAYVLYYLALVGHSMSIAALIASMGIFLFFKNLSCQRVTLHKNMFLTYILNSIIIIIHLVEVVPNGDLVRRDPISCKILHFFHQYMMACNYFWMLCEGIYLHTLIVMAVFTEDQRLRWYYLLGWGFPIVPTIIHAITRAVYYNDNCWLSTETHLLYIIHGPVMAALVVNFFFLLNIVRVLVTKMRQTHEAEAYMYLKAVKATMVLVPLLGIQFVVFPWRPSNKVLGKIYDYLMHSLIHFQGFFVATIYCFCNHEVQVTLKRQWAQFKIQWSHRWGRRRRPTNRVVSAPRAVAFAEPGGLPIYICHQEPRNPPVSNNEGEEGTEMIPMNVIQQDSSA
T1 sequence (Q9JJ73 23-147 partner): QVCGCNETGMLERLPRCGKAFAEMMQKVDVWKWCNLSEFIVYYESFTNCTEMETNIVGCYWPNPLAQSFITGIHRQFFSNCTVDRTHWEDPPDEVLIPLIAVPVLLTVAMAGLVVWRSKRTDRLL
Method: The apparent binding affinities were determined using a scintillation proximity assay with beads from PerkinElmer and cell membranes containing the AMY3R or CTRs. […] Membranes were harvested and membranes were prepared and kept at −80 °C until use. The assay was performed in a 384-well Optiplate (PerkinElmer). Membranes were mixed with scintillation proximity assay beads in a 1:1 ratio. […] Samples were analyzed on a TopCounter (Packard). The IC50 values were calculated using GraphPad Prism. See Supporting Information S7: SAR Screening Assay Methods (Binding Assays (Human and Rat)) for more information.
Binding Assays (Human and Rat). Brief descriptions of the methods used to determine binding affinities for SAR analysis are described below. Curves and IC50 values were plotted and calculated in GraphPad Prism using nonlinear regression (one site binding competition analysis), with pIC50 values […]
values were used to calculate the binding affinity ratios in order to express the selectivity of compounds for the AMY3R versus the CTR.
CTR Binding Assay. The binding assay was performed using scintillation proximity assay (SPA) beads (RPNQ0001) from PerkinElmer and cell membranes containing either the hCTR or rCTR. BHK […]
(§1) Membranes were prepared in the following way: the cells were rinsed with PBS and incubated with Versene for approximately 5 min before harvesting. The cells were flushed with PBS and the cell-suspension was centrifuged for 5 min at 1000 rpm. Cells were homogenized (Ultra Turrax) in a buffer […]
containing 20 mM Na-HEPES and 0.1 mM EDTA (pH 7.4, buffer 2). The resulting pellet was re-suspended in buffer 2 and protein concentration was measured (BCA protein assay, Pierce). The homogenate was kept cold during the whole procedure. The membranes were stored at –80 °C until […]
The binding assay was performed in a 384-well Optiplate (PerkinElmer) in a total volume of 40 μL.
Membranes were mixed with SPA beads in a 1:1 ratio. […]
mg/well. Test compounds were dissolved in DMSO and further diluted in assay buffer (50 mM HEPES, pH 7.4, 1 mM CaCl2, 5 mM MgCl2, 0.1% ovalbumin, and 0.02% Tween-20).
Calcitonin (NEX422 PerkinElmer) was dissolved in assay buffer and added to the Optiplate at a final […]
prior to centrifugation (1500 rpm, 10 min). Samples were analyzed on TopCounter (Packard).
AMY3R Binding Assay. The binding assay was performed using SPA beads (RPNQ0001) from PerkinElmer and cell membranes containing either the hAMY3R or rAMY3R. BHK tk-ts 13 cells were […]
as §1, with “and cultured as described above. Membranes” for “Membranes”, “buffer containing 20 mM Na-HEPES and 10 mM EDTA (pH 7.4), and” for “buffer”
The resulting pellet was re-suspended, homogenized, and
7.4, buffer 2). The resulting pellet was re-suspended in buffer 2 and protein concentration was measured (BCA protein assay, Pierce). The homogenate was kept cold during the whole procedure.
The membranes were stored at –80 °C until use.
Membranes were mixed with SPA beads in a 1:1 ratio. The final concentration of SPA beads was 0.05 mg/well. Test compounds were dissolved in DMSO and further diluted in assay buffer (50 mM […]
rAMY (NEX448 PerkinElmer) was dissolved in assay buffer and added to the Optiplate at a final

[2] = SPA binding assay, Tables S13 and S15
[3] = SPA binding assay, Tables S13 and S15, read-out: rAMY3R pIC50 (converted)
[4] = SPA, BHK cell membranes, 125I-rat amylin, 120 min 25 °C, read-out: rAMY3R IC50

SMILES	HMWP [1]	rAMY3R pIC50 (rAMY3R; [2])	ratio rCTR/rAMY3R (rAMY3R)	IC50 (rAMY3R; [3])	IC50 (rAMY3R; [4])
CC[C@H](C)[C@H](NC(=O)[C@H](C)NC(=O)CNC(=O)[C@H](Cc1ccccc1)NC(=O)[C@H](CC(N)=O)NC(=O)[C@@H]1CCCN1C(=O)[C@H](CO)NC(=O)[C@H](CO)NC(=O)[C@H](Cc1c[nH]cn1)NC(=O)[C@H](CCCNC(=N)N)NC(=O)[C@H](CC(C)C)NC(=O)[C@H](Cc1ccccc1)NC(=O)[C@H](CC(N)=O)NC(=O)[C@H](C)NC(=O)[C@H](CC(C)C)NC(=O)[C@H](CCCNC(=N)N)NC(=O)[C@H](CCC(N)=O)NC(=O)[C@@H](NC(=O)[C@H](C)NC(=O)[C@@H]1CSSC[C@H](NC(=O)[C@H](CCCCN)NC(=O)CC[C@H](NC(=O)CCCCCCCCCCCCCCCCCCC(=O)O)C(=O)O)C(=O)N[C@@H](CC(N)=O)C(=O)N[C@@H]([C@@H](C)O)C(=O)N[C@@H](C)C(=O)N[C@@H]([C@@H](C)O)C(=O)N1)[C@@H](C)O)C(=O)N1CCC[C@H]1C(=O)N[C@@H](CO)C(=O)N[C@@H](CO)C(=O)N[C@H](C(=O)N[C@@H](CC(N)=O)C(=O)N[C@H](C(=O)NCC(=O)N[C@@H](CO)C(=O)N[C@@H](CCCCN)C(=O)N[C@H](C(=O)N[C@@H](Cc1ccc(O)cc1)C(N)=O)[C@@H](C)O)C(C)C)[C@@H](C)O [Peptide 13]	2.1%	8.77	52	–	–
CC[C@H](C)[C@H](NC(=O)[C@H](C)NC(=O)CNC(=O)[C@H](Cc1ccccc1)NC(=O)[C@H](CC(N)=O)NC(=O)[C@@H]1CCCN1C(=O)[C@H](CO)NC(=O)[C@H](CO)NC(=O)[C@H](Cc1c[nH]cn1)NC(=O)[C@H](CCCNC(=N)N)NC(=O)[C@H](CC(C)C)NC(=O)[C@H](Cc1ccccc1)NC(=O)[C@H](CC(N)=O)NC(=O)[C@H](C)NC(=O)[C@H](CC(C)C)NC(=O)[C@H](CCCNC(=N)N)NC(=O)[C@H](CCC(N)=O)NC(=O)[C@@H](NC(=O)[C@H](C)NC(=O)[C@@H]1CSSC[C@H](NC(=O)[C@@H](N)CCCCNC(=O)CC[C@H](NC(=O)CCCCCCCCCCCCCCCCCCC(=O)O)C(=O)O)C(=O)N[C@@H](CC(N)=O)C(=O)N[C@@H]([C@@H](C)O)C(=O)N[C@@H](C)C(=O)N[C@@H]([C@@H](C)O)C(=O)N1)[C@@H](C)O)C(=O)N1CCC[C@H]1C(=O)N[C@@H](CO)C(=O)N[C@@H](CO)C(=O)N[C@H](C(=O)N[C@@H](CC(N)=O)C(=O)N[C@H](C(=O)NCC(=O)N[C@@H](CO)C(=O)N[C@@H](CCCCN)C(=O)N[C@H](C(=O)N[C@@H](Cc1ccc(O)cc1)C(N)=O)[C@@H](C)O)C(C)C)[C@@H](C)O [Peptide 14]	3.0%	–	60	0.912 nM	0.92 nM
CC[C@H](C)[C@H](NC(=O)[C@H](C)NC(=O)CNC(=O)[C@H](Cc1ccccc1)NC(=O)[C@H](CC(N)=O)NC(=O)[C@@H]1CCCN1C(=O)[C@H](CO)NC(=O)[C@H](CO)NC(=O)[C@H](Cc1c[nH]cn1)NC(=O)[C@H](CCCNC(=N)N)NC(=O)[C@H](CC(C)C)NC(=O)[C@H](Cc1ccccc1)NC(=O)[C@H](CC(N)=O)NC(=O)[C@H](C)NC(=O)[C@H](CC(C)C)NC(=O)[C@H](CCCNC(=N)N)NC(=O)[C@H](CCC(N)=O)NC(=O)[C@@H](NC(=O)[C@H](C)NC(=O)[C@@H]1CSSC[C@H](NC(=O)[C@H](CCCCN)NC(=O)CC[C@H](NC(=O)CCCCCCCCCCCCCCCCCCC(=O)O)C(=O)O)C(=O)N[C@@H](CC(N)=O)C(=O)N[C@@H]([C@@H](C)O)C(=O)N[C@@H](C)C(=O)N[C@@H]([C@@H](C)O)C(=O)N1)[C@@H](C)O)C(=O)N1CCC[C@H]1C(=O)N[C@@H](CO)C(=O)N[C@@H](CO)C(=O)N[C@H](C(=O)N[C@@H](CC(N)=O)C(=O)N[C@H](C(=O)NCC(=O)N[C@@H](CCCNC(=N)N)C(=O)N[C@@H](CC(N)=O)C(=O)N[C@H](C(=O)N[C@@H](Cc1ccc(O)cc1)C(N)=O)[C@@H](C)O)C(C)C)[C@@H](C)O [Peptide 16]	2.2%	8.75	55	–	1.77 nM
CC[C@H](C)[C@H](NC(=O)[C@H](C)NC(=O)CNC(=O)[C@H](Cc1ccccc1)NC(=O)[C@H](CC(N)=O)NC(=O)[C@@H]1CCCN1C(=O)[C@H](CO)NC(=O)[C@H](CO)NC(=O)[C@H](Cc1c[nH]cn1)NC(=O)[C@H](CCCNC(=N)N)NC(=O)[C@H](CC(C)C)NC(=O)[C@H](Cc1ccccc1)NC(=O)[C@H](CC(N)=O)NC(=O)[C@H](C)NC(=O)[C@H](CC(C)C)NC(=O)[C@H](CCCNC(=N)N)NC(=O)[C@H](CCC(N)=O)NC(=O)[C@@H](NC(=O)[C@H](C)NC(=O)[C@@H]1CSSC[C@H](NC(=O)[C@H](CCCCN)NC(=O)CC[C@H](NC(=O)CCCCCCCCCCCCCCCCCCC(=O)O)C(=O)O)C(=O)N[C@@H](CC(N)=O)C(=O)N[C@@H]([C@@H](C)O)C(=O)N[C@@H](C)C(=O)N[C@@H]([C@@H](C)O)C(=O)N1)[C@@H](C)O)C(=O)N1CCC[C@H]1C(=O)N[C@@H](CO)C(=O)N[C@@H](CO)C(=O)N[C@H](C(=O)N[C@@H](CC(N)=O)C(=O)N[C@H](C(=O)NCC(=O)N[C@@H](Cc1c[nH]cn1)C(=O)N[C@@H](CC(N)=O)C(=O)N[C@H](C(=O)N[C@@H](Cc1ccc(O)cc1)C(N)=O)[C@@H](C)O)C(C)C)[C@@H](C)O [Peptide 17]	1.7%	–	39	1.29 nM	1.29 nM
CC[C@H](C)[C@H](NC(=O)[C@H](C)NC(=O)CNC(=O)[C@H](Cc1ccccc1)NC(=O)[C@H](CC(N)=O)NC(=O)[C@@H]1CCCN1C(=O)[C@H](CO)NC(=O)[C@H](CO)NC(=O)[C@H](Cc1c[nH]cn1)NC(=O)[C@H](CCCNC(=N)N)NC(=O)[C@H](CC(C)C)NC(=O)[C@H](Cc1ccccc1)NC(=O)[C@H](CC(N)=O)NC(=O)[C@H](C)NC(=O)[C@H](CC(C)C)NC(=O)[C@H](CCCNC(=N)N)NC(=O)[C@H](CCC(N)=O)NC(=O)[C@@H](NC(=O)[C@H](C)NC(=O)[C@@H]1CSSC[C@H](NC(=O)[C@H](CCCCN)NC(=O)COCCOCCNC(=O)CC[C@H](NC(=O)CCCCCCCCCCCCCCCCCCC(=O)O)C(=O)O)C(=O)N[C@@H](CC(N)=O)C(=O)N[C@@H]([C@@H](C)O)C(=O)N[C@@H](C)C(=O)N[C@@H]([C@@H](C)O)C(=O)N1)[C@@H](C)O)C(=O)N1CCC[C@H]1C(=O)N[C@@H](CO)C(=O)N[C@@H](CO)C(=O)N[C@H](C(=O)N[C@@H](CC(N)=O)C(=O)N[C@H](C(=O)NCC(=O)N[C@@H](CO)C(=O)N[C@@H](Cc1c[nH]cn1)C(=O)N[C@H](C(=O)N[C@@H](Cc1ccc(O)cc1)C(N)=O)[C@@H](C)O)C(C)C)[C@@H](C)O [Peptide 18] ({C20 diacid-γGlu-AEEA}-KCNTATCATQRLANFLRHSSPNFGAIPSSTNVGSHTY-NH2; disulfide 2-7; N-terminus assumed)	3.5%	–	57	–	–
